Laboratory results published in US20230241257A1, “BIOTIN-MODIFIED DIMER AND USE THEREOF” (THE UNIVERSITY OF TOKYO, priority 2020, published 2023).

Columns and labels:
[1] = tested on: human stomach cancer cells (MKN-45); experiment: Experiment 5: pharmacokinetics of Cupid-scFv antibody (24 h before)+^211At-psyche-BR in MKN-45 cancer-bearing mouse models; type: in vivo, mice (BALB/cSlc nu/nu)
Procedure: The present experiment used human stomach cancer cells (MKN-45) expressing carcinoembryonic antigen (CEA). 9-week-old male immunodeficient mice (BALB/cSlc nu/nu) were used. MKN-45 cells (1×10^7/0.1 ml) were transplanted into the mice's subcutis on the right shoulder dorsal side to produce cancer-bearing mouse models. The mice were divided into four groups when the tumor volume became a predetermined size (on Day 13 after the transplantation). The Cupid-scFv antibody was administered in 100 μmol/0.1 ml via the caudal vein of each mouse. Twenty-four hours after administration of the Cupid-scFv antibody, ^211At-psyche-BR (about 0.25 MBq/100 ml) was administered via the caudal vein of each mouse. One minute, 1 hour, 6 hours, and 24 hours after administration of the ^211At-psyche-BR, the mice were euthanized by collecting whole blood from the heart of each mouse under isoflurane anesthesia, and tumor tissues and normal tissues/organs were then excised. Normal tissues/organs: skin (lower right limb), muscle (right gastrocnemius muscle), heart, lung, spleen, pancreas, white fat (upper portion of right side testis), testis (both sides), stomach, stomach contents, small intestine (including contents), large intestine (including contents), liver, brown fat (interscapular), submandibular gland, thyroid gland (together with trachea), bone (right femur), cerebrum, eyeballs (both sides), bladder, and urine; the remaining residues were divided into three equal parts, and the three equal parts were defined to be residue-1, residue-2, and residue-3. After that, the weights of blood, plasma, urine, tumor, and normal tissues/organs were measured, and the radioactivity thereof was then measured using a γ counter. The amounts of the ^211At-psyche-BR (radioactivity) accumulated in the blood, plasma, urine, tumor, and normal tissues/organs were calculated. That is to say, the rates (% ID/g) of the ^211At-psyche-BR accumulated per unit weight (g) of the blood, plasma, urine, tumor, and normal tissues/organs, in the administered ^211At-psyche-BR were shown. Regarding accumulation of the ^211At-psyche-BR in the thyroid gland, since the weight of the thyroid gland could not be precisely measured, it was shown that the rate (% ID) of the ^211At-psyche-BR accumulated in the thyroid gland in the administered ^211At-psyche-BR.

[2] = tested on: human stomach cancer cells (MKN-45); experiment: Experiment 8: therapeutic effects and toxicity of Cupid-scFv antibody (24 h before)+^211At-psyche-BR in MKN-45 cancer-bearing mouse models; type: in vivo, mice (BALB/cSlc nu/nu); conditions: for general states and body weight: Day 5, urgent euthanasia
Procedure: The present experiment used human stomach cancer cells (MKN-45) expressing carcinoembryonic antigen (CEA). 9-week-old male immunodeficient mice (BALB/cSlc nu/nu) were used. MKN-45 cells (5×10^6/0.1 ml) were transplanted into the mice's subcutis on the right shoulder dorsal side to produce cancer-bearing mouse models. At the time point in which the tumor volume became a predetermined size (on Day 8 after the transplantation), the mice were divided into seven groups, which were for use in the evaluation of the therapeutic effects, and a biodistribution group (6 hours) of cancer-bearing mouse models having this tumor size. The Cupid-scFv antibody was administered 100 μmol/0.1 ml via the caudal vein of each mouse. Twenty-four hours after administration of the Cupid-scFv antibody, ^211At-psyche-BR was administered via the caudal vein of each mouse in an amount of 5.55 MBq, 3.70 MBq, 1.85 MBq, 1.11 MBq, or 0.37 MBq.
To a control group, a solvent for the ^211At-psyche-BR was administered (solvent group). A group to which only cupid was administered was defined as a Cupid group. The mice's general states were observed and recorded immediately after administration of the ^211At-psyche-BR and at 3 hours after the administration. Moreover, until Day 14, after administration of the ^211At-psyche-BR, observation of the general states and the measurement of the body weight was carried out every day. After Day 14 of the administration of the ^211At-psyche-BR, observation of the general states and the measurement of the body weight was carried out every other day. The tumor size was measured every other day after the treatment with the ^211At-psyche-BR. On Day 36, after the treatment with the ^211At-psyche-BR, observation of the general states, the measurement of the body weight, and the measurement of the tumor size were carried out, and the mice were then euthanized by collecting whole blood from the heart of each mouse under isoflurane anesthesia. Tumor tissues and major tissues/organs were excised from the mice, weighed, and immobilized with formalin.

SMILES: N=C1N[C@H]2[C@H](CS[C@H]2CCCCNC(=O)CCCCCC(=O)Nc2cc(NC(=O)CCCCCC(=O)NCCCC[C@@H]3SC[C@@H]4NC(=N)N[C@@H]43)cc(C(=O)NCCOCCOCCNC(=O)c3cccc([211At])c3)c2)N1 [^211At-psyche-BR]
- Accumulation in the kidney ([1]; after 1 minute): 28.6±1.3 % ID/g
- Accumulation in the liver ([1]; after 1 minute): 13.3±2.2 % ID/g
- Accumulation in the lung ([1]; after 1 minute): 14.4±1.6 % ID/g
- Accumulation in the spleen ([1]; after 1 minute): 4.7±0.4 % ID/g
- Accumulation in the tumor ([1]; after 1 minute): 0.6±0.1 % ID/g
- Clearance from the blood ([1]; after 1 minute): 46.9±1.1 % ID/g
- tumor-to-blood ratio ([1]; after 1 minute): 0.01±0.00
- tumor-to-muscle ratio ([1]; after 1 minute): 1.22±0.05
- Accumulation in the kidney ([1]; after 1 hour): 17.1±1.4 % ID/g
- Accumulation in the liver ([1]; after 1 hour): 11.4±0.7 % ID/g
- Accumulation in the lung ([1]; after 1 hour): 13.2±2.2 % ID/g
- Accumulation in the spleen ([1]; after 1 hour): 7.1±0.2 % ID/g
- Accumulation in the tumor ([1]; after 1 hour): 3.1±0.7 % ID/g
- Clearance from the blood ([1]; after 1 hour): 39.5±5.2 % ID/g
- tumor-to-blood ratio ([1]; after 1 hour): 0.08±0.02
- tumor-to-muscle ratio ([1]; after 1 hour): 5.11±1.81
- Accumulation in the kidney ([1]; after 6 hours): 9.5±0.2 % ID/g
- Accumulation in the liver ([1]; after 6 hours): 12.8±0.2 % ID/g
- Accumulation in the lung ([1]; after 6 hours): 9.1±1.0 % ID/g
- Accumulation in the spleen ([1]; after 6 hours): 8.4±1.0 % ID/g
- Accumulation in the tumor ([1]; after 6 hours): 9.3±0.6 % ID/g
- Clearance from the blood ([1]; after 6 hours): 25.3±1.0 % ID/g
- tumor-to-blood ratio ([1]; after 6 hours): 0.7±0.02
- tumor-to-muscle ratio ([1]; after 6 hours): 12.80±1.86
- Accumulation in the thyroid gland ([1]; after 24 h): 0.15±0.05 % ID
- Accumulation in the kidney ([1]; after 24 hours): 5.4±0.5%
- Accumulation in the liver ([1]; after 24 hours): 7.8±0.9%
- Accumulation in the lung ([1]; after 24 hours): 5.3±0.1%
- Accumulation in the spleen ([1]; after 24 hours): 5.5±1.1%
- Accumulation in the tumor ([1]; after 24 hours): 18.4±2.5%
- Clearance from the blood ([1]; after 24 hours): 8.3±0.5 % ID/g
- amount administered excreted (blood) ([1]; after 24 hours): about 92%
- tumor-to-blood ratio ([1]; after 24 hours): 2.23±0.41
- tumor-to-muscle ratio ([1]; after 24 hours): 25.07±3.68
- general states and body weight changes ([2]; 0.37 MBq): almost the same levels as in the control group
- tumor growth compared with the control group ([2]; 0.37 MBq, until Day 10): tumor growth was suppressed
- general states and body weight changes ([2]; 1.11 MBq): almost the same levels as in the control group
- tumor growth compared with the control group ([2]; 1.11 MBq, until Day 10): tumor growth was suppressed
- tumor growth compared with the control group ([2]; 1.85, 1.11 and 0.37 MBq, after Day 10): the tumor growth was suppressed in an amount-dependent manner
- tumor growth compared with the control group ([2]; 1.85 MBq, until Day 10): tumor growth was suppressed
- general states and body weight ([2]; 3.70 MBq): general states and body weight reduction became severe
- general states and body weight ([2]; 5.55 MBq): general states and body weight reduction became severe
